# “Also recorded” adds a separate entry of the source.
# Columns and labels:
# cotton fibers = assay: In vitro cotton ovule culture, fiber growth (fiber length); type: cell-based, Gossypium hirsutum; conditions: for increase in average fiber length: by 7 dpa; for block of promotion of fiber growth by 30 μM ATPγS and ADPβS: co-applied with 30 μM nucleotide, 7 dpa; for reversal of the effects of high concentrations of ATPγS and ADPβS on fiber growth: co-applied with 150 μM ATPγS or ADPβS; for block of both the inhibition and stimulation of fiber growth by ATPγS and ADPβS: summary statement
# Experimental: In Vitro Ovule Culture. Cotton bolls were harvested within 24 hours of flower opening, 1-DPA, and all petals bracts, and sepals were removed. All collected cotton bolls were used within 24 hours of original harvest. If the bolls were not used immediately they were stored in a 4° C. refrigerator until ready for use. For sterilization, bolls were dropped into an 85% ethanol solution for at least 30 seconds but not more than two minutes and then removed with forceps. The excess ethanol was shaken off and the boll was passed through a flame until the residual ethanol was burned off. Ovules were then excised and placed in 10 mL of BT Cotton Media cell culture (Caisson Laboratories, Inc., North Logan, Utah, USA)+5.0 μM IAA and 0.5 μM GA3 (Sigma, St. Louis, Mo., USA) hormone solution, final concentration, in 60×15 mm Petri dishes and were then wrapped in Milli Wrap (Millipore Corporation, Bedford, Mass.). Twelve to 16 cotton ovules were placed into their respective Petri dishes and incubated with nucleotides, inhibitors, antibody serum or a combination of these at specified concentrations and were cultured at 32° C. in the dark without agitation. To facilitate combing of the cultured ovules, ovules were placed in a 75% ethanol solution for 15 minutes and then taken out to be combed. Fiber lengths were measured manually with a dissecting microscope after laying the ovule on its side and combing the fiber cells away from the ovule with forceps and dissecting probe.
# In Vitro Cotton Ovule Culture Treatments. For studies testing the effects of apyrase inhibitors on cotton fiber growth, the inhibitors (NGXT191 and AI #4, both at 2.5 mg/mL), were dissolved in dimethyl sulfoxide and then applied to Cotton Media cell culture at 3 and 5 DPA after the introduction of cotton ovules to the media. For experiments testing the effects of apyrase antibodies on cotton fiber growth, apyrase antibodies were applied to Cotton Media cell culture at 3 and 5 DPA after the introduction of cotton ovules in the appropriate amounts. For experiments testing the effects of applying nucleotides during cotton fiber growth, various concentrations of ATPγS, ADPβS, and AMP (Sigma-Aldrich, Inc., St. Louis, Mo., USA) were added to Cotton Media cell culture at 5 DPA after the introduction of cotton ovules in the appropriate amounts. All nucleotides were made into 50 mM stocks dissolved in de-ionized water and kept at −20° C. while not in use. The inhibitor stocks were stored at ˜20° C. while not in use. For experiments testing the effects of P2-receptor antagonists, the antagonists (PPADS and Adenosine, stocks at 50 mM) were dissolved in de-ionized water and then applied to Cotton Media cell culture at 3 and 5 DPA for inhibitor and antibody experiments and 5 DPA for applied nucleotide experiments. The antagonists stocks were stored at ˜20° C. while not in use (Sigma-Aldrich, Inc., St. Louis, Mo., USA). The ethylene inhibitor (S)-trans-2-Amino-4-(2-aminoethoxy)-3-butenoic acid hydrochloride (Sigma-Aldrich, Inc., St. Louis, Mo., USA) (AVG, stock at 50 mM) was dissolved in de-ionized water and then applied to Cotton Media cell culture at 5 DPA. The production of the Arabidopsis anti-APY1 and APY2 antibodies used is described by Steinebrunner et al. (2003). The crude immune and pre-immune sera were purified using protein A-sepharose following the protocol described by Martin et al. (1982) with the slight modification that the buffers used were azide-free. Bio-rad assay was used to determine that the concentration of the immune serum and pre-immune serum which was 0.46 μg/mL and 0.3 μg/mL, respectively.
# apyrase activity = assay: ATP level in the medium outside growing cotton fibers in ovule culture; type: cell-based, Gossypium hirsutum; conditions: highest concentration of inhibitor, versus control level of 330 nM
# Source text: Apyrase inhibitors and anti-apyrase antibodies inhibit fiber elongation. In order to test whether apyrase activity is important during cotton fiber growth we applied varying concentrations of two different chemical apyrase inhibitors, apyrase inhibitor 4 and NGXT191, to cotton ovule cultures at 3 dpa and 5 dpa. […] There is clearly a dose-dependent effect, and the effects at each dosage are statistically significant. […] The level of inhibition increased with increasing concentrations of both inhibitors. Next when PPADS, an inhibitor of animal purinoceptors, was tested, it could block the 40% inhibition of fiber growth caused by application of the highest concentration of apyrase inhibitors. […] Application of the highest concentration of inhibitors NGXT191 and 4 caused a 2.1-fold and 3.2-fold increase in ATP levels, respectively.
# In Vitro Ovule Culture. Cotton bolls were harvested within 24 hours of flower opening, 1-DPA, and all petals bracts, and sepals were removed. All collected cotton bolls were used within 24 hours of original harvest. If the bolls were not used immediately they were stored in a 4° C. refrigerator until ready for use. […] Fiber lengths were measured manually with a dissecting microscope after laying the ovule on its side and combing the fiber cells away from the ovule with forceps and dissecting probe. […]
Structure (SMILES),increase in average fiber length (cotton fibers; 30 μM),"effect on fiber growth (cotton fibers; 150 μM, at 7 dpa)",block of promotion of fiber growth by 30 μM ATPγS and ADPβS (cotton fibers),reversal of the effects of high concentrations of ATPγS and ADPβS on fiber growth (cotton fibers),block of both the inhibition and stimulation of fiber growth by ATPγS and ADPβS (cotton fibers),also measured
Nc1ncnc2c1ncn2[C@@H]1O[C@H](COP(=O)(O)OP(O)(O)=S)[C@@H](O)[C@H]1O [ADPβS],44%,inhibit growth,,,,
Nc1ncnc2c1ncn2[C@@H]1O[C@H](COP(O)(O)=S)[C@@H](O)[C@H]1O [AMPS],,,,,,"effect on fiber growth (cotton fibers; 200 μM, at 7 dpa): no effect on growth; effect on fiber growth (cotton fibers; concentration not given): no change in the growth rate; also recorded: no effect on fiber growth"
Nc1ncnc2c1ncn2[C@@H]1O[C@H](COP(=O)(O)OP(=O)(O)OP(O)(O)=S)[C@@H](O)[C@H]1O [ATPγS],46%,inhibit growth,,,,"promotion of cotton fiber growth (cotton fibers; 30 μM, at 5 dpa (data not shown)): statistically significant levels of promotion of cotton fiber growth; growth rate of fibers (cotton fibers; 30 μM, between 5 dpa and 7 dpa (data not shown)): statistically significant increase in the growth rate; inhibition of cotton fiber growth (cotton fibers; 150 μM, at 5 dpa): Statistically significant levels of inhibition of cotton fiber growth"
Cc1cccc(NS(=O)(=O)c2ccc(-c3ccccc3)cc2)c1 [NGXT191],,,,,,"increase in ATP levels outside of the growing fibers (apyrase activity): 2.1 fold; inhibition of fiber growth (cotton fibers; all three concentrations, applied at 3 dpa and 5 dpa, fibers measured at 7 dpa): statistically significant inhibition of fiber growth"
Cc1nc(N=Nc2ccc(S(=O)(=O)O)cc2S(=O)(=O)O)c(COP(=O)(O)O)c(C=O)c1O [PPADS],,,blocked,reversed,blocked,reversal of fiber growth inhibition caused by apyrase inhibitors (cotton fibers; 250 μM PPADS in the media with highest concentration of apyrase inhibitors): returned to control levels
Nc1ncnc2c1ncn2[C@@H]1O[C@H](CO)[C@@H](O)[C@H]1O [adenosine],,,blocked,reversed,blocked,

# Reference: patent US11555200B2, “Regulation of cotton fiber growth by extracellular nucleotides and ectoapyrases” (priority 2008, dated 2023)
